Reference: patent publication US20080182834A1, “Multi-Nuclear Metal Complexes Partially Encapsulated by Cucurbit[7-12]Urils” (NEWSOUTH INNOVATIONS PTY LIMITED, priority 2004, published 2008)

tested on: L1210 murine leukaemia cells; test: In vitro cytotoxic activity against L1210 murine leukaemia cells; format: cell-based; details: concentration required to inhibit cell growth by 50%

| Substance | IC50 [nM] |
| --- | --- |
| {trans-diamminebis{trans-diamminechloro(μ-1,6-hexanediamine)platinum(II)}platinum(II)}nitrate [BBR3464] | 57 |
| {trans-diamminechloro(μ-dipyrazolylmethane)platinum(II)}chloride [Di-Pt] | 3800 |
| {trans-diamminechloro(μ-spermidine)platinum(II)}chloride [BBR3571] | 11.5 |

tested on: L1210/DDP cisplatin resistant cells; test: In vitro cytotoxic activity against cisplatin resistant L1210/DDP cells; format: cell-based, murine; details: concentration required to inhibit cell growth by 50%

| Substance | IC50 [nM] |
| --- | --- |
| {trans-diamminebis{trans-diamminechloro(μ-1,6-hexanediamine)platinum(II)}platinum(II)}nitrate [BBR3464] | 24.5 |
| {trans-diamminechloro(μ-dipyrazolylmethane)platinum(II)}chloride [Di-Pt] | 8800 |
| {trans-diamminechloro(μ-spermidine)platinum(II)}chloride [BBR3571] | 7.5 |
